Source: PMC4514850, “A Novel TGR5 Activator WB403 Promotes GLP-1 Secretion and Preserves Pancreatic β-Cells in Type 2 Diabetic Mice” (PLoS ONE, 2015)

Assays:
ICR mice = test: GLP-1 secretion in vivo in ICR mice; settings: oral 50, 100 mg/kg with DPP-4 inhibitor 5 mg/kg; blood 10 min after 2 g/kg glucose; n = 5
Description: Endocrine differentiation was induced by seeding NCI-H716 cells in plates coated with Matrigel (Becton Dickinson). Cells were washed with RPMI-1640 medium without FBS and incubated in the same medium containing indicated compounds at 10 μmol/l. The condition medium was collected after 30 min. GLP-1 secretion in MIN6 or primary enterocytes was conducted similarly. To isolate primary enterocytes, ileum or colon was cut into 2 cm length, rinsed by PBS (pH7.2∼7.4) before dispersed in 10 mmol/l EDTA/PBS (pH7.4) for 15 min at room temperature, followed by pipetting up and down. Enterocytes were collected by filtration through a 70 μm cell strainer. To study the effect of WB403 on GLP-1 secretion in vivo, mice in group of three were fasted overnight and orally received 0, 50, 100 mg/kg of WB403 dispersed in 0.5% CMC with a DPP-4 inhibitor (5 mg/kg). There were 5 animals in each group. 2 g/kg glucose was administrated 30 min later and blood was collected 10 min after glucose challenge.
The GLP-1 (active) ELISA kit was purchased from Millipore, and insulin ELISA kit was from Mercodia. For quantitative determination of cAMP, a competitive enzyme immunoassay kit from R&D system was used. All immunoassays were performed according to manufacturers’ instructions.

normal mice = test: 4-week treatment of normal mice (hypoglycemia risk); format: in vivo; settings: 100 mg/kg, 4 weeks
Description: Mice were treated for 4 weeks by WB403 and sitagliptin at 100 mg/kg. Glibenclamide at 2.5 mg/kg was used as positive control for hypoglycemia. FBG (A) and PBG (B) were measured every week. Values are mean ± SD (n = 10). *p<0.05, **p<0.01 vs. vehicle group. (TIF) Click here for additional data file.

Q: How did the “GLP-1 concentration in serum” value (ICR mice) turn out when `CCc1cc(-c2nc(C)c(COCc3ccc(Br)cc3)s2)ccn1` [WB403, 4-(5-((4-bromobenzyloxy)-methyl)-4-methylthiazol-2-yl)-2-ethylpyridine] was run?
A: significantly increased

Q: What about the “FBG lowering in normal mice” value (normal mice) of the same compound?
A: did not cause significant FBG and PBG lowering

Q: What about the “PBG lowering in normal mice” value (normal mice) of the same compound?
A: did not cause significant FBG and PBG lowering
